The source of these data is patent publication US10689377B2 (Mirati Therapeutics, Inc., priority 2017, dated 2020).

The pIC50 is −log10 of the IC50, conventionally taken in molar units.

Structures are written as SMILES. pIC50: −log10 of the molar value. Structures can show the parent of a compound that is named as a salt.

Chain of KRas G12C (P01116 1-188 isoform P01116-2 G12C): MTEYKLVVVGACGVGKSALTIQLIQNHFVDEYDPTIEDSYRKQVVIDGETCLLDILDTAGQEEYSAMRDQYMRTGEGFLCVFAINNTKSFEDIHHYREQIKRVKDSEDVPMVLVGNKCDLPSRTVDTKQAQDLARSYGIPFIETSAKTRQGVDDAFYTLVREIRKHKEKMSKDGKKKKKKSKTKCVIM

In this experiment the target is KRas G12C (Homo sapiens, UniProt P01116, G12C). Kind of experiment: Cellular inhibition of KRas G12C measured by Phospho-ERK in NCI-H358 cells. The conditions noted are these: pERK(Thr202/Tyr204) normalized with GAPDH, NCI-H358 cells, 3 hours; read-out: IC50. It is filed as cell-based. The method, boiled down:
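Readout is pERK(Thr202/Tyr204) immunofluorescence normalized to GAPDH, expressed as percent of DMSO control and fitted with a 4-parameter curve for IC50. Attached NCI-H358 cells received compound for 3 hours in 0.5% DMSO, followed by fixation and methanol permeabilization.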
As for `C=CC(=O)N1CCN(c2nc(OC[C@@H]3CCCN3C)nc3c2CCN(c2cc(OC)cc4ccccc24)C3)C[C@@H]1CC#N` [Example 314, 2-[(2S)-4-[7-(3-methoxy-1-naphthyl)-2-[[(2S)-1-methylpyrrolidin-2-yl]methoxy]-6,8-dihydro-5H-pyrido[3,4-d]pyrimidin-4-yl]-1-prop-2-enoyl-piperazin-2-yl]acetonitrile], the pIC50 is 6.00 to 10.00. `C=CC(=O)N1CC2(C1)CN(c1nc(OC(C)CN(C)C)nc3c1CCN(c1cc(O)cc4ccccc14)C3)C2` (centres unmarked) [Example 18, 1-(6-(2-((1-(dimethylamino)propan-2-yl)oxy)-7-(3-hydroxynaphthalen-1-yl)-5,6,7,8-tetrahydropyrido[3,4-d]pyrimidin-4-yl)-2,6-diazaspiro[3.3]heptan-2-yl)prop-2-en-1-one]: the pIC50 was less than 6.00.

In the case of `C=CC(=O)N1CCN(c2nc(N3CCCC(N(C)C)C3)nc3c2CCN(c2cccc4ccccc24)C3)C[C@@H]1CC#N` (stereo partly drawn) [Example 405, 2-((2S)-1-acryloyl-4-(2-(3-(dimethylamino)piperidin-1-yl)-7-(naphthalen-1-yl)-5,6,7,8-tetrahydropyrido[3,4-d]pyrimidin-4-yl)piperazin-2-yl)acetonitrile], the pIC50 was 6.00 to 10.00. For `C=CC(=O)N1CCN(c2ncnc3c2CCN(C(CO)c2ccccc2)C3)CC1` (centres unmarked) [Example 71, 1-(4-(7-(2-hydroxy-1-phenylethyl)-5,6,7,8-tetrahydropyrido[3,4-d]pyrimidin-4-yl)piperazin-1-yl)prop-2-en-1-one] the value was less than 6.00.

With `C=CC(=O)N1CCN(c2nc(O[C@H](C)CN(C)C)nc3c2CCN(c2cc(O)ccc2C(F)(F)F)C3)CC1` [Example 79, (R)-1-(4-(2-((1-(dimethylamino)propan-2-yl)oxy)-7-(5-hydroxy-2-(trifluoromethyl)phenyl)-5,6,7,8-tetrahydropyrido[3,4-d]pyrimidin-4-yl)piperazin-1-yl)prop-2-en-1-one], the pIC50 is less than 6.00. In the case of `Cc1cccc2cccc(N3CCc4c(nc(OCCC(=O)N(C)C)nc4N4CCN(C(=O)/C=C/CN(C)C)[C@@H](CC#N)C4)C3)c12` [Example 463, (S,E)-3-((4-(3-(cyanomethyl)-4-(4-(dimethylamino)but-2-enoyl)piperazin-1-yl)-7-(8-methylnaphthalen-1-yl)-5,6,7,8-tetrahydropyrido[3,4-d]pyrimidin-2-yl)oxy)-N,N-dimethylpropanamide], the pIC50 is 6.00 to 10.00. Next, `C=CC(=O)N1CCN(c2nc(OCCCN3CCS(=O)(=O)CC3)nc3c2CCN(c2cc(O)cc4ccccc24)C3)CC1` [Example 34, 1-(4-(2-(3-(1,1-dioxidothiomorpholino)propoxy)-7-(3-hydroxynaphthalen-1-yl)-5,6,7,8-tetrahydropyrido[3,4-d]pyrimidin-4-yl)piperazin-1-yl)prop-2-en-1-one trifluoroacetate]: less than 6.00; `C=CC(=O)N1CCN(c2nc(OC[C@@H]3CCCN3C)nc3c2CCN(c2cccc4ncccc24)C3)CC1CC#N` (stereo partly drawn) [Example 294, 2-[4-[2-[[(2S)-1-methylpyrrolidin-2-yl]methoxy]-7-(5-quinolyl)-6,8-dihydro-5H-pyrido[3,4-d]pyrimidin-4-yl]-1-prop-2-enoyl-piperazin-2-yl]acetonitrile]: less than 6.00. Regarding `C=CC(=O)N1CCN(c2nc(OC(CO)CN3CCOCC3)nc3c2CCN(c2cc(O)cc4ccccc24)C3)CC1` (centres unmarked) [Example 217, 1-(4-(2-((1-hydroxy-3-morpholinopropan-2-yl)oxy)-7-(3-hydroxynaphthalen-1-yl)-5,6,7,8-tetrahydropyrido[3,4-d]pyrimidin-4-yl)piperazin-1-yl)prop-2-en-1-one], the pIC50 is less than 6.00. On to `C=CC(=O)N1CCN(c2nc(OCCN(C)C)nc3c2CCN(c2cc(O)cc4ccccc24)C3)C[C@H]1C` [Example 15, (R)-1-(4-(2-(2-(dimethylamino)ethoxy)-7-(3-hydroxynaphthalen-1-yl)-5,6,7,8-tetrahydropyrido[3,4-d]pyrimidin-4-yl)-2-methylpiperazin-1-yl)prop-2-en-1-one], for which the pIC50 is less than 6.00. On to `C=CC(=O)N1CCN(c2nc(OCCN(C)C)nc3c2CCN(c2ccccc2C(F)(F)F)C3)CC1CC#N` (centres unmarked) [Example 296, 2-[4-[2-[2-(dimethylamino)ethoxy]-7-[2-(trifluoromethyl)phenyl]-6,8-dihydro-5H-pyrido[3,4-d]pyrimidin-4-yl]-1-prop-2-enoyl-piperazin-2-yl]acetonitrile], for which the pIC50 was 6.00 to 10.00. As to `C=CC(=O)N1CCN(c2nc(OC[C@@H]3CCCN3C)nc3c2CCN(c2cccc4ccc(OC)cc24)C3)CC1CC#N` (stereo partly drawn) [Example 288, 2-[4-[7-(7-methoxy-1-naphthyl)-2-[[(2S)-1-methylpyrrolidin-2-yl]methoxy]-6,8-dihydro-5H-pyrido[3,4-d]pyrimidin-4-yl]-1-prop-2-enoyl-piperazin-2-yl]acetonitrile], the pIC50 was less than 6.00. Consider `C=CC(=O)N1CCN(c2nc(OC(C)CN(C)C)nc3c2CCN(c2cccc4ccccc24)C3)CC1` (centres unmarked) [Example 24, 1-(4-(2-((1-(dimethylamino)propan-2-yl)oxy)-7-(naphthalen-1-yl)-5,6,7,8-tetrahydropyrido[3,4-d]pyrimidin-4-yl)piperazin-1-yl)prop-2-en-1-one], for which the pIC50 was less than 6.00. On to `C=CC(=O)N1CCN(c2nc(OCCN3CCC(C)CC3)nc3c2CCN(c2cc(O)cc4ccccc24)C3)CC1` [Example 92, 1-(4-(7-(3-hydroxynaphthalen-1-yl)-2-(2-(4-methylpiperidin-1-yl)ethoxy)-5,6,7,8-tetrahydropyrido[3,4-d]pyrimidin-4-yl)piperazin-1-yl)prop-2-en-1-one], for which the pIC50 is 6.00 to 10.00. In the case of `C=CC(=O)N1CCN(c2ncnc3c2CC(=O)N(c2cc(O)cc4ccccc24)C3)CC1` [Example 113, 4-(4-acryloylpiperazin-1-yl)-7-(3-hydroxynaphthalen-1-yl)-7,8-dihydropyrido[3,4-d]pyrimidin-6(5H)-one], the pIC50 is less than 6.00.

Turning to `C=CC(=O)N1CCN(c2nc(OCC3CCN(C)C3)nc3c2CCN(c2cc(O)cc4ccccc24)C3)CC1` (centres unmarked) [Example 89, 1-(4-(7-(3-hydroxynaphthalen-1-yl)-2-((1-methylpyrrolidin-3-yl)methoxy)-5,6,7,8-tetrahydropyrido[3,4-d]pyrimidin-4-yl)piperazin-1-yl)prop-2-en-1-one], the pIC50 was 6.00 to 10.00. Regarding `C=CC(=O)N1CCN(c2nc(OC[C@@H]3CCCN3C)nc3c2CCN(c2c(OC)ccc4[nH]ncc24)C3)CC1` [Example 157], the pIC50 is less than 6.00. For `C=CC(=O)N1CCN(c2nc(OC[C@@H]3CCCN3C)nc3c2CCN(c2cccc(F)c2C)C3)C[C@@H]1CC#N` [Example 388, 2-((S)-1-acryloyl-4-(7-(3-fluoro-2-methylphenyl)-2-(((S)-1-methylpyrrolidin-2-yl)methoxy)-5,6,7,8-tetrahydropyrido[3,4-d]pyrimidin-4-yl)piperazin-2-yl)acetonitrile], the pIC50 is 6.00 to 10.00. Turning to `C=CC(=O)N1CCN(c2nc(OC[C@@H]3CCCN3C)nc3c2CCN(c2cccc4ccn(C)c24)C3)C[C@@H]1CC#N` [Example 436, 2-((S)-1-acryloyl-4-(7-(1-methyl-1H-indol-7-yl)-2-(((S)-1-methylpyrrolidin-2-yl)methoxy)-5,6,7,8-tetrahydropyrido[3,4-d]pyrimidin-4-yl)piperazin-2-yl)acetonitrile], the pIC50 was 6.00 to 10.00. For the molecule `C=CC(=O)N1CCN(c2nc(OC[C@@H]3CCCN3C)nc3c2CCN(c2cccc(OC)c2F)C3)CC1CC#N` (stereo partly drawn) [Example 307, 2-[4-[7-(2-fluoro-3-methoxy-phenyl)-2-[[(2S)-1-methylpyrrolidin-2-yl]methoxy]-6,8-dihydro-5H-pyrido[3,4-d]pyrimidin-4-yl]-1-prop-2-enoyl-piperazin-2-yl]acetonitrile], the pIC50 is less than 6.00.

`C=CC(=O)N1CCN(c2nc(OC[C@@H]3C[C@@H](F)CN3C)nc3c2CCN(c2cc(OC)cc4ccccc24)C3)CC1` [Example 355, 1-[4-[2-[[(2S,4R)-4-fluoro-1-methyl-pyrrolidin-2-yl]methoxy]-7-(3-methoxy-1-naphthyl)-6,8-dihydro-5H-pyrido[3,4-d]pyrimidin-4-yl]piperazin-1-yl]prop-2-en-1-one]: the pIC50 is less than 6.00. In the case of `C=CC(=O)N1CCN(c2nc(OC[C@@H]3CCCN3C)nc3c2CCN(c2cccc(Cl)c2C(F)(F)F)C3)CC1CC#N` (stereo partly drawn) [Example 277, 2-(1-acryloyl-4-(7-(3-chloro-2-(trifluoromethyl)phenyl)-2-(((S)-1-methylpyrrolidin-2-yl)methoxy)-5,6,7,8-tetrahydropyrido [3,4-d]pyrimidin-4-yl)piperazin-2-yl)acetonitrile], the pIC50 was 6.00 to 10.00.

Take `C=CC(=O)N1CCN(c2nc(OC[C@@H]3CCCN3C)nc3c2CCN(c2cccc(C)c2C(F)(F)F)C3)CC1CC#N` (some centres unmarked) [Example 265]: the pIC50 was 6.00 to 10.00. In the case of `C=CC(=O)N1CCN(c2nc(OC[C@@H]3CCCN3C)nc3c2CCN(c2c(O)cccc2F)C3)[C@@H](C)C1` [Example 321, 1-[(3S)-4-[7-(2-fluoro-6-hydroxy-phenyl)-2-[[(2S)-1-methylpyrrolidin-2-yl]methoxy]-6,8-dihydro-5H-pyrido[3,4-d]pyrimidin-4-yl]-3-methyl-piperazin-1-yl]prop-2-en-1-one], the pIC50 was less than 6.00. On to `C=CC(=O)N1CCN(c2nc(OC[C@H]3CN(C)CCO3)nc3c2CCN(c2cccc4ccccc24)C3)CC1CC#N` (stereo partly drawn) [Example 443, 2-(1-Acryloyl-4-(2-(((R)-4-methylmorpholin-2-yl)methoxy)-7-(naphthalen-1-yl)-5,6,7,8-tetrahydropyrido[3,4-d]pyrimidin-4-yl)piperazin-2-yl)acetonitrile], for which the pIC50 was 6.00 to 10.00. As for `C=CC(=O)N1CCN(c2nc(OCCN3CCC(C#N)CC3)nc3c2CCN(c2cc(O)cc4ccccc24)C3)CC1` [Example 81, 1-(2-((4-(4-acryloylpiperazin-1-yl)-7-(3-hydroxynaphthalen-1-yl)-5,6,7,8-tetrahydropyrido[3,4-d]pyrimidin-2-yl)oxy)ethyl)piperidine-4-carbonitrile], the pIC50 was less than 6.00.
